The record followed here is patent US4021431A, “3-(Piperidino-lower-alkyl)-indoles” (Sterling Drug Inc., priority 1975, dated 1977).

The structures appear in SMILES notation. Where a name gives a salt, the structure may show the parent alone.

The subject of one data set is adjuvant-induced arthritis. Briefly: inhibition of adjuvant-induced arthritis test (AA). Particulars: Rattus norvegicus, po, read-out: AA (% Inhib.).
Description: The inhibition of adjuvant-induced arthritis test used in the evaluation of the instant compounds is described briefly as follows: Adult male Sprague-Dawley strain rats weighing 200-230 grams were used; 0.1 ml. of a 0.6% suspension of adjuvant (M. Butyricum, Difco Laboratories, Detroit, Michigan) in heavy mineral oil was injected into the plantar tissue of the left hind paw. A negative control group was injected with mineral oil only. Symptoms of polyarthritis began to appear approximately ten days after adjuvant administration, and beginning on the ninth day after adjuvant injection, the animals were given, by gavage, twelve daily medications of the test compounds suspended in 1% gum tragacanth in a volume of 1 ml./100 g. of body weight. Both the negative control and adjuvant injected control animals received the vehicle only. Food and water are permitted ad libitum. Twenty-four hours after the last medication, the animals were weighed, the degree of arthritic involvement (that is the increase in foot edema measured plethysmographically as described above), and plasma inflammation units were determined. The results were expressed as percent inhibition calculated from the average differences in total foot volume of both hind paws between the adjuvant injected control and medicated rats, correcting for difference in foot volume of the oil injected negative control group.
Following foot volume measurements, the animals were anesthetized with ether and bled by heart puncture into rubber stoppered, evacuated glass tubes (calibrated to draw 2.7 ml.) containing 0.3 ml. of 0.1M sodium oxalate solution for determination of plasma inflammation units (P.I.U.). The unclotted blood was centrifuged, and 0.1 ml. of the plasma was diluted with 5.0 of 0.9% sodium chloride solution. The P.I.U.'s are direct spectrophotometer optical density readings expressed as the difference between preheated and heated plasma, corrected for 1:50 dilution. The results were expressed as percent inhibition calculated from the difference between the average plasma uncorrected for average plasma inflammation units of oil-injected negative control rats.
All data were obtained on oral administration.
As to `Cc1c(CCN2CCCCC2CC2CCCCC2)c2cc(F)cc(F)c2n1C(=O)c1ccccc1` (centres unmarked) [Example 50], the inhibition in vivo at 0.162 µM, 0.162 µmol/kg is 87%.

With `COc1ccc2c(c1)c(CCN1CCCCC1CCC1CCCCC1)c(C)n2C(=O)c1ccc(F)cc1` (centres unmarked) [Example 65, 1-(4-fluorobenzoyl)-3-{2-[2-(2-cyclohexylethyl)piperidino]ethyl}-5-methoxy-2-methylindole hydrochloride], the inhibition in vivo at 0.08 µM, 0.08 µmol/kg turned out to be 85%.

`COc1ccc2c(c1)c(CCN(C(C)C)C(C)C)c(C)n2C(=O)c1ccc(F)cc1` [Example 87, 1-(4-fluorobenzoyl)-3-[2-(diisopropylamino)ethyl]-5-methoxy-2-methylindolehydrochloride]: the inhibition in vivo at 0.005 µM, 0.005 µmol/kg amounted to 43%; the inhibition in vivo at 0.02 µM, 0.02 µmol/kg came out at 73%; the inhibition in vivo at 0.08 µM, 0.08 µmol/kg turned out to be 98%.

`COc1ccc2c(c1)c(CCN1CCCCC1CC1CCCCC1)c(C)n2C(=O)c1ccc(F)cc1` (centres unmarked) [Example 6]: the inhibition in vivo at 0.02 µM, 0.02 µmol/kg was determined as 66% and the inhibition in vivo at 0.08 µM, 0.08 µmol/kg turned out to be 84%.

On to `COc1ccc2c(c1)c(CCN1CCCCC1CC1CCCCC1)c(C)n2C(=O)c1ccccc1F` (centres unmarked) [Example 9], for which the inhibition in vivo at 0.162 µM, 0.162 µmol/kg came to 72%.

Consider `COc1ccc2c(c1)c(CCN1CCCCC1CC1CCCCC1)c(C)n2C(=O)c1ccco1` (centres unmarked) [Example 11], for which the inhibition in vivo at 0.324 µM, 0.324 µmol/kg was found to be 50%.

In the case of `COc1ccc2c(c1)c(CCN1CCCCC1CC1CCCCC1)c(C)n2C(=O)C=Cc1ccccc1` (centres unmarked) [Example 8], the inhibition in vivo at 0.08 µM, 0.08 µmol/kg came out at 30%.

Regarding `COc1ccc2c(c1)c(CCN1CCCCC1CC1CCCCC1)cn2C(=O)c1ccccc1` (centres unmarked) [Example 67], the inhibition in vivo at 0.08 µM, 0.08 µmol/kg is 25%.

In the case of `COc1ccc2c(c1)c(CCN1CCCCC1CC1CCCCC1)c(C)n2C(=O)c1cccc(F)c1` (centres unmarked) [Example 12], the inhibition in vivo at 0.08 µM, 0.08 µmol/kg amounted to 17%.

In the case of `Cc1c(CCN2CCCCC2CC2CCCCC2)c2ccccc2n1C(=O)c1ccccc1` (centres unmarked) [Example 48], the inhibition in vivo at 0.08 µM, 0.08 µmol/kg is 33%.

Take `Cc1c(CCN2CCCCC2CC2CCCCC2)c2cc(F)ccc2n1C(=O)c1ccccc1` (centres unmarked) [Example 58]: the inhibition in vivo at 0.08 µM, 0.08 µmol/kg was determined as 51%.

Take `COc1ccc2c(c1)c(CCN(Cc1ccccc1)C(C)(C)C)c(C)n2C(=O)c1ccc(F)cc1` [Example 85, 1-(4-fluorobenzoyl)-3-[2-(N-benzyl-N-t-butylamino)ethyl]-5-methoxy-2-methylindole hydrochloride]: the inhibition in vivo at 0.005 µM, 0.005 µmol/kg is 0%; the inhibition in vivo at 0.02 µM, 0.02 µmol/kg stood at 11%; the inhibition in vivo at 0.08 µM, 0.08 µmol/kg was determined as 104%.

Regarding `COc1ccc2c(c1)c(CCN(C(C)C)C(C)C)c(C)n2C(=O)c1ccccc1` [Example 73, 1-benzoyl-3-[2-(diisopropylamino)ethyl]-5-methoxy-2-methylindole hydrochloride], the inhibition in vivo at 0.005 µM, 0.005 µmol/kg is 0%; the inhibition in vivo at 0.02 µM, 0.02 µmol/kg was determined as 0%; the inhibition in vivo at 0.08 µM, 0.08 µmol/kg worked out at 53%.

On to `COc1ccc2c(c1)c(CCN1CCCCC1CC1CCCCC1)c(C)n2C(=O)c1ccccc1Br` (centres unmarked) [Example 7], for which the inhibition in vivo at 0.08 µM, 0.08 µmol/kg was determined as 29%.

With `COc1ccc2c(c1)c(CCN1CCCCC1C1CCCCC1)c(C)n2C(=O)c1ccc(F)cc1` (centres unmarked) [Example 63, 1-(4-fluorobenzoyl)-3-[2-(2-cyclohexylpiperidino)ethyl]-5-methoxy-2-methylindole hydrochloride], the inhibition in vivo at 0.08 µM, 0.08 µmol/kg was 84%.

Consider `COc1ccc2c(c1)c(CCN1CCC(CCC3CCCCC3)CC1)c(C)n2C(=O)c1ccc(F)cc1` [Example 88, 1-(4-fluorobenzoyl)-3-{2-[4-(2-cyclohexylethyl)piperidino]ethyl}-5-methoxy-2-methylindole hydrochloride], for which the inhibition in vivo at 0.08 µM, 0.08 µmol/kg was 75%.

Take `COc1ccc2c(c1)c(CCN1CCCCC1CC1CCCCC1)c(C)n2C(=O)c1ccc(Cl)cc1` (centres unmarked) [Example 84, 1-(4-chlorobenzoyl)-3-[2-(2-cyclohexylmethylpiperidino)ethyl]-5-methoxy-2-methylindole]: the inhibition in vivo at 0.01 µM, 0.01 µmol/kg is 36%; the inhibition in vivo at 0.04 µM, 0.04 µmol/kg worked out at 70%; the inhibition in vivo at 0.16 µM, 0.16 µmol/kg was 100%.

`COc1ccc2c(c1)c(CCN1CCC(C3CCCCC3)CC1)c(C)n2C(=O)c1ccc(F)cc1` [Example 90, 1-(4-fluorobenzoyl)-3-[2-(4-cyclohexylpiperidino)ethyl]-5-methoxy-2-methylindole hydrochloride]: the inhibition in vivo at 0.08 µM, 0.08 µmol/kg worked out at 77%.

`COc1ccc2c(c1)c(CCN1CCCCC1CC1CCCCC1)c(C)n2C(=O)c1ccccc1` (centres unmarked) [Example 1, 1-Benzoyl-3-[2-(2-cyclohexylmethylpiperidino)ethyl]-5-methoxy-2-methylindole]: the inhibition in vivo at 0.1 µM, 0.1 µmol/kg is 79%.

As to `COc1ccc2c(c1)c(CCN1CCCCC1C1CCCCC1)c(C)n2C(=O)c1ccccc1` (centres unmarked) [Example 62, 1-benzoyl-3-[2-(2-cyclohexylpiperidino)ethyl]-5-methoxy-2-methylindole hydrochloride], the inhibition in vivo at 0.324 µM, 0.324 µmol/kg was 107%.

Turning to `COc1ccc2c(c1)c(CCN1CCCCC1CC1CCCCC1)c(C)n2C(=O)c1ccc(Cl)c(Cl)c1` (centres unmarked) [Example 5], the inhibition in vivo at 0.08 µM, 0.08 µmol/kg was found to be 0%.

As to `COc1ccc2c(c1)c(CCN1CCCCC1CC1CCCCC1)c(C)n2C(=O)c1cccs1` (centres unmarked) [Example 10], the inhibition in vivo at 0.324 µM, 0.324 µmol/kg came out at 63%.

As for `COc1ccc2c(c1)c(CCN1CCCCC1CCC1CCCCC1)c(C)n2C(=O)c1ccccc1` (centres unmarked) [Example 64, 1-benzoyl-3-{2-[2-(2-cyclohexylethyl)piperidino]ethyl}-5-methoxy-2-methylindole], the inhibition in vivo at 0.01 µM, 0.01 µmol/kg was determined as 36%; the inhibition in vivo at 0.04 µM, 0.04 µmol/kg turned out to be 70%; the inhibition in vivo at 0.16 µM, 0.16 µmol/kg was determined as 100%.

With `COc1ccc2c(c1)c(CCN1CCC(CCC3CCCCC3)CC1)c(C)n2C(=O)c1ccccc1` [Example 89, 1-benzoyl-3-{2-[4-(2-cyclohexylethyl)piperidino]ethyl}-5-methoxy-2-methylindole hydrochloride], the inhibition in vivo at 0.08 µM, 0.08 µmol/kg worked out at 89%.

Take `COc1ccc(C(=O)n2c(C)c(CCN3CCCCC3CC3CCCCC3)c3cc(OC)ccc32)cc1` (centres unmarked) [Example 3]: the inhibition in vivo at 0.18 µM, 0.18 µmol/kg was 64%.

Take `COc1ccc2c(c1)c(CCN(Cc1ccccc1)C(C)(C)C)c(C)n2C(=O)c1ccccc1` [72 (N-Benzyl), 1-benzoyl-3-[2-(N-benzyl-N-t-butylamino)ethyl]-5-methoxy-2-methylindole hydrochloride]: the inhibition in vivo at 0.08 µM, 0.08 µmol/kg worked out at 62%.

As to `COc1ccc2c(c1)c(CCN1CCCCC1CC1CCCCC1)c(C)n2C(=O)c1ccc(C)cc1` (centres unmarked) [Example 2], the inhibition in vivo at 0.08 µM, 0.08 µmol/kg is 37%.

In the case of `COc1ccc2c(c1)c(CCNC(C)(C)C)c(C)n2C(=O)c1ccc(F)cc1.Cl` [Example 86, 1-(4-fluorobenzoyl)-3-[2-(N-t-butylamino)ethyl]-5-methoxy-2-methylindole hydrochloride], the inhibition in vivo at 0.005 µM, 0.005 µmol/kg came out at 13% and the inhibition in vivo at 0.02 µM, 0.02 µmol/kg is 71%.

In the case of `COc1ccc2c(c1)c(CCN1CCCCC1CC1CCCCC1)c(C)n2C(=O)c1ccc(Cl)cc1Cl` (centres unmarked) [Example 4], the inhibition in vivo at 0.02 µM, 0.02 µmol/kg was 28% and the inhibition in vivo at 0.324 µM, 0.324 µmol/kg was 80%.

The same data set, now with this note: oral, twelve daily medications, 0.08 μM/kg.
Turning to `COc1ccc2c(c1)c(CCNC(C)(C)C)c(C)n2C(=O)c1ccc(F)cc1.Cl` [Example 86, 1-(4-fluorobenzoyl)-3-[2-(N-t-butylamino)ethyl]-5-methoxy-2-methylindole hydrochloride], the “AA: toxicity noted in place of % inhibition” value is on record as “Toxic”.

The data set is the same for the next values; noted with them: oral, twelve daily medications, 0.16 μM/kg.
Take `COc1ccc2c(c1)c(CCNC(C)(C)C)c(C)n2C(=O)c1ccccc1.Cl` [72 (N-H), 1-benzoyl-3-[2-(N-t-butylamino)ethyl]-5-methoxy-2-methylindole hydrochloride]: the “AA: toxicity noted in place of % inhibition” value is recorded as “Toxic”.
